Results: PubChem BioAssay (NCI)
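All cell lines were grown in 96-well plates and treated with compound for 48 hours. Definition used: TGI = concentration required for complete inhibition of growth.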

Experiments:
Assay in all cases: DTP human tumour cell line panel, 48 h
[1] = tested on: TK-10 renal
[2] = tested on: MALME-3M melanoma
[3] = tested on: SNB-19 CNS
[4] = tested on: OVCAR-5 ovarian
[5] = tested on: DLD-1 colon
[6] = tested on: HOP-62 NSCLC
[7] = tested on: RXF 393 renal
[8] = tested on: OVCAR-8 ovarian
[9] = tested on: EKVX NSCLC
[10] = tested on: ACHN renal
[11] = tested on: SW-620 colon
[12] = tested on: SK-MEL-28 melanoma
[13] = tested on: CCRF-CEM leukemia
[14] = tested on: HT29 colon
[15] = tested on: SNB-75 CNS
[16] = tested on: 786-0 renal
[17] = tested on: UACC-62 melanoma
[18] = tested on: U251 CNS
[19] = tested on: SF-268 CNS
[20] = tested on: OVCAR-4 ovarian
[21] = tested on: M19-MEL melanoma
[22] = tested on: HOP-18 NSCLC
[23] = tested on: MOLT-4 leukemia
[24] = tested on: M14 melanoma
[25] = tested on: UO-31 renal
[26] = tested on: SR leukemia
[27] = tested on: HL-60(TB) leukemia
[28] = tested on: KM12 colon
[29] = tested on: OVCAR-3 ovarian
[30] = tested on: RPMI-8226 leukemia
[31] = tested on: KM20L2 colon
[32] = tested on: A549 NSCLC
[33] = tested on: SK-OV-3 ovarian
[34] = tested on: IGROV1 ovarian
[35] = tested on: LXFL 529 NSCLC
[36] = tested on: SNB-78 CNS
[37] = tested on: UACC-257 melanoma
[38] = tested on: HCT-116 colon
[39] = tested on: SF-539 CNS
[40] = tested on: A498 renal
[41] = tested on: K-562 leukemia
[42] = tested on: NCI-H23 lung
[43] = tested on: RXF-631 renal
[44] = tested on: LOX IMVI melanoma
[45] = tested on: NCI-H226 lung
[46] = tested on: DMS 114 small cell lung
[47] = tested on: SN12C renal
[48] = tested on: SF-295 CNS
[49] = tested on: NCI-H460 lung
[50] = tested on: COLO 205 colon
[51] = tested on: HCT-15 colon
[52] = tested on: SK-MEL-2 melanoma
[53] = tested on: CAKI-1 renal
[54] = tested on: DMS 273 small cell lung
[55] = tested on: NCI-H522 lung
[56] = tested on: HCC-2998 colon
[57] = tested on: SK-MEL-5 melanoma

`CCCCCCCCCCCCCCC1OC(=O)c2ccccc21` (configuration not stated) showed a TGI [1] greater than 100 µM, a TGI [2] greater than 100 µM and a TGI [3] greater than 100 µM. It also gave a TGI [4] greater than 100 µM, a TGI [5] greater than 100 µM and a TGI [6] greater than 100 µM. The TGI [7] was greater than 100 µM, the TGI [8] was greater than 100 µM and the TGI [9] was greater than 100 µM. It also gave a TGI [10] greater than 100 µM, a TGI [11] greater than 100 µM and a TGI [12] greater than 100 µM. The TGI [13] was greater than 100 µM, the TGI [14] was greater than 100 µM and the TGI [15] was greater than 100 µM. The TGI [16] was greater than 100 µM, the TGI [17] was greater than 100 µM and the TGI [18] was greater than 100 µM. It also gave a TGI [19] greater than 100 µM, a TGI [20] greater than 100 µM and a TGI [21] greater than 100 µM. For the same molecule, the TGI [22] was greater than 100 µM, the TGI [23] was greater than 100 µM and the TGI [24] was greater than 100 µM. It also gave a TGI [25] greater than 100 µM, a TGI [26] greater than 100 µM and a TGI [27] of 40.7 µM. The TGI [28] was greater than 100 µM, the TGI [29] was greater than 100 µM and the TGI [30] was greater than 100 µM. It also gave a TGI [31] greater than 100 µM, a TGI [32] greater than 100 µM and a TGI [33] greater than 100 µM. It also gave a TGI [34] greater than 100 µM, a TGI [35] greater than 100 µM and a TGI [36] greater than 100 µM. For the same molecule, the TGI [37] was greater than 100 µM, the TGI [38] was greater than 100 µM and the TGI [39] was greater than 100 µM. The TGI [40] was greater than 100 µM, the TGI [41] was greater than 100 µM and the TGI [42] was greater than 100 µM. It also gave a TGI [43] greater than 100 µM, a TGI [44] greater than 100 µM and a TGI [45] greater than 100 µM. The TGI [46] was 90.4 µM, the TGI [47] was 75.9 µM and the TGI [48] was greater than 100 µM. For the same molecule, the TGI [49] was greater than 100 µM.

In the case of `COC(=O)c1c(OC)cccc1C(=O)O`, the TGI [1] is reported as greater than 100 µM, the TGI [2] is reported as greater than 100 µM and the TGI [3] is reported as greater than 100 µM. For the same molecule, the TGI [4] was greater than 100 µM, the TGI [50] was greater than 100 µM and the TGI [6] was greater than 100 µM. The TGI [7] was greater than 100 µM, the TGI [8] was greater than 100 µM and the TGI [9] was greater than 100 µM. For the same molecule, the TGI [10] was greater than 100 µM, the TGI [51] was greater than 100 µM and the TGI [52] was greater than 100 µM. For the same molecule, the TGI [11] was greater than 100 µM, the TGI [53] was greater than 100 µM and the TGI [13] was greater than 100 µM. It also gave a TGI [14] greater than 100 µM, a TGI [15] greater than 100 µM and a TGI [16] greater than 100 µM. The TGI [54] was greater than 100 µM, the TGI [17] was greater than 100 µM and the TGI [18] was greater than 100 µM. The TGI [19] was greater than 100 µM, the TGI [20] was greater than 100 µM and the TGI [21] was greater than 100 µM. For the same molecule, the TGI [22] was greater than 100 µM, the TGI [23] was greater than 100 µM and the TGI [55] was greater than 100 µM. The TGI [24] was greater than 100 µM, the TGI [25] was greater than 100 µM and the TGI [27] was greater than 100 µM. It also gave a TGI [28] greater than 100 µM, a TGI [29] greater than 100 µM and a TGI [30] greater than 100 µM. For the same molecule, the TGI [31] was greater than 100 µM, the TGI [56] was greater than 100 µM and the TGI [32] was greater than 100 µM. For the same molecule, the TGI [33] was greater than 100 µM, the TGI [34] was greater than 100 µM and the TGI [35] was greater than 100 µM. It also gave a TGI [36] greater than 100 µM, a TGI [37] greater than 100 µM and a TGI [38] greater than 100 µM. It also gave a TGI [57] greater than 100 µM, a TGI [39] greater than 100 µM and a TGI [40] greater than 100 µM. For the same molecule, the TGI [41] was greater than 100 µM, the TGI [42] was greater than 100 µM and the TGI [43] was greater than 100 µM. The TGI [45] was greater than 100 µM, the TGI [46] was greater than 100 µM and the TGI [47] was greater than 100 µM. For the same molecule, the TGI [48] was greater than 100 µM and the TGI [49] was greater than 100 µM.
